What all share (assay): substrate-stimulated ATPase assay (colorimetric Pi release)
Type in all cases: biochemical

Experiment [1] concerns the target T1, chABCD1 (chimeric ABCD1) (Homo sapiens, UniProt P33897, R401Q).
T1 construct: single polypeptide: N-terminal FLAG tag, PMP-4 residues 1-65 replacing human ABCD1 residues 1-63, then human ABCD1 64-745; HEK293F; homodimer; LMNG/CHS for assays, digitonin for cryo-EM; with PMP-4 (peroxisomal membrane protein related, ABCD1 homolog, Caenorhabditis elegans; N-terminal segment fused to the target chain)
T1 sequence (P33897 64-745 R401Q): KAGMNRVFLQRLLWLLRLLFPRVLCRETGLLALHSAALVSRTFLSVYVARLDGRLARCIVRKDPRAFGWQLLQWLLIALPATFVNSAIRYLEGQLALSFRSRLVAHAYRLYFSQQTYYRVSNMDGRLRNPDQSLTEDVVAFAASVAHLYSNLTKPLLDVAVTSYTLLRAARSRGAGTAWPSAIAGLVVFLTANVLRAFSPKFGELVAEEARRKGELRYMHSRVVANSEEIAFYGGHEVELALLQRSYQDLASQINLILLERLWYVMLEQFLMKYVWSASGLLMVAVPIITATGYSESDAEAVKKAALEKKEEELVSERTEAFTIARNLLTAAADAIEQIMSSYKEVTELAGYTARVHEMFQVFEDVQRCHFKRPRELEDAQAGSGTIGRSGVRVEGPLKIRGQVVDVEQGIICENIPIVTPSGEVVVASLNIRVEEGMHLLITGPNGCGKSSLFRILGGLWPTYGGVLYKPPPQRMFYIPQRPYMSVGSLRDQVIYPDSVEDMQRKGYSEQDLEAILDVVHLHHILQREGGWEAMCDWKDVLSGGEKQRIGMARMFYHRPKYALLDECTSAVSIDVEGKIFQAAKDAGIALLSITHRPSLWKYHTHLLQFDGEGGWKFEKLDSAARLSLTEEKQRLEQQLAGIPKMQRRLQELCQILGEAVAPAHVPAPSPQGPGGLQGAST
The note with it: 5 μM C22:0-CoA, 2 mM ATP, 2 mM MgCl2, LMNG + CHS, pH 7.5, 37 °C.

Experiment [2] deals with T2, chABCD1 (chimeric ABCD1) (Homo sapiens, UniProt P33897, T693M).
T2 construct: single polypeptide: N-terminal FLAG tag, PMP-4 residues 1-65 replacing human ABCD1 residues 1-63, then human ABCD1 64-745; HEK293F; homodimer; LMNG/CHS for assays, digitonin for cryo-EM; with PMP-4 (peroxisomal membrane protein related, ABCD1 homolog, Caenorhabditis elegans; N-terminal segment fused to the target chain)
T2 sequence (P33897 64-745 T693M): T1 sequence (P33897 64-745 R401Q) with Q338R, T630M
The note with it: 2 mM ATP, 2 mM MgCl2, LMNG + CHS, pH 7.5, 37 °C, varying C22:0-CoA.

Experiment [3] concerns the target T3, chABCD1 (chimeric ABCD1) (Homo sapiens, UniProt P33897, DEL694-745).
T3 construct: single polypeptide: N-terminal FLAG tag, PMP-4 residues 1-65 replacing human ABCD1 residues 1-63, then human ABCD1 64-745; HEK293F; homodimer; LMNG/CHS for assays, digitonin for cryo-EM; with PMP-4 (peroxisomal membrane protein related, ABCD1 homolog, Caenorhabditis elegans; N-terminal segment fused to the target chain)
T3 sequence (P33897 64-693): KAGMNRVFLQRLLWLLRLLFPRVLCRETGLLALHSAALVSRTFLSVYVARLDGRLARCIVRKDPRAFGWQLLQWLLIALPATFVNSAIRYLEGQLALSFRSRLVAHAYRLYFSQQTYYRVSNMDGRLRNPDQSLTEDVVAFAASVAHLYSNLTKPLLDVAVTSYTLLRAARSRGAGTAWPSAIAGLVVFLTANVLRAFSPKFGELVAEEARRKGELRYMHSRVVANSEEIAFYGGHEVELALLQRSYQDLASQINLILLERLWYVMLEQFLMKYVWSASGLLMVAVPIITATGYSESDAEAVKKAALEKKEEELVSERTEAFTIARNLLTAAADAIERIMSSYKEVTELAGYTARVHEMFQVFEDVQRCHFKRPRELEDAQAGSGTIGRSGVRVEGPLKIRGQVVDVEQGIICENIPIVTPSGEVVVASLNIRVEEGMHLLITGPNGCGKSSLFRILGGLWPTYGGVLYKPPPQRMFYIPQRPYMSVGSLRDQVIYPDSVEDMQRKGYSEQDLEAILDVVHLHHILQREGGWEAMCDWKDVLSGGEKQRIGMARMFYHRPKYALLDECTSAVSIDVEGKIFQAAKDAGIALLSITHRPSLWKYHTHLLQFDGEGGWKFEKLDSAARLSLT

Experiment [4] deals with T4, chABCD1 (chimeric ABCD1) (Homo sapiens, UniProt P33897, R104A).
T4 construct: single polypeptide: N-terminal FLAG tag, PMP-4 residues 1-65 replacing human ABCD1 residues 1-63, then human ABCD1 64-745; HEK293F; homodimer; LMNG/CHS for assays, digitonin for cryo-EM; with PMP-4 (peroxisomal membrane protein related, ABCD1 homolog, Caenorhabditis elegans; N-terminal segment fused to the target chain)
T4 sequence (P33897 64-745 R104A): T1 sequence (P33897 64-745 R401Q) with R41A, Q338R
To be noted: 5 μM C22:0-CoA, 2 mM ATP, 2 mM MgCl2, LMNG + CHS, pH 7.5, 37 °C.

Structures are written as SMILES. Where a chain is given by its changes, count along the chain named.

In general, EC50 refers to the midpoint of the concentration-response curve. A lower EC50 goes with higher potency in that assay. `CCCCCCCCCCCCCCCCCCCCCC(=O)SCCNC(=O)CCNC(=O)[C@H](O)C(C)(C)COP(=O)(O)OP(=O)(O)OC[C@H]1O[C@@H](n2cnc3c(N)ncnc32)[C@H](O)[C@@H]1OP(=O)(O)O` [C22:0-CoA]: the “relative ATPase activity” value on chABCD1 (chimeric ABCD1) [1] is “displayed significantly decreased substrate-simulated ATPase activity, compared to the wild-type”; on chABCD1 (chimeric ABCD1) [4] it was “displayed significantly decreased substrate-simulated ATPase activity, compared to the wild-type”. Further, at chABCD1 (chimeric ABCD1) [2], the ATPase activity result is given as “ATPase activity assays of T693M mutant, which showed an almost non-detectable activity”. Also, the EC50 on chABCD1 (chimeric ABCD1) [3] was ~4 µM.

(Values after paper PMC9177597, “Structural basis of substrate recognition and translocation by human very long-chain fatty acid transporter ABCD1” (Nature Communications, 2022).)
